Results taken from patent US9045426B2, “Method for producing 1,2-dihydropyridine-2-one compound” (EISAI R&D MANAGEMENT CO., LTD., priority 2004, dated 2015).

What was measured:
[1] = Chargeability (static potential of the powder after stirring); assay type: physicochemical; conditions: about 1 g stirred for 30 minutes with fluoroplastic-coated stirring bar
Method: About 1 g of respective compounds is weighed into a weighing bottle (diameter of 35 mm). A stifling bar [fluoroplastic (tetrafluoroethylene resin) coating; 20 mm] is placed in the bottle and after the lid is in place, the powders are stirred for 30 minutes. The lid is opened at the same time that stirring is stopped; and the static potential of the powder is measured using a static potential measuring instrument.
STATIRON-DZ3 manufactured by Shishido Electrostatic, Ltd.

[2] = Physical stability in mixing operation in the presence of water or water-ethanol (1:1) mixed solution; assay type: physicochemical; conditions: room temperature, then dried at about 60° C.
Method: Physical Stability in Mixing-Operation in the Presence of Water or Water-Ethanol (1:1) Mixed Solution
About 150 mg of respective crystals are placed in an agate mortar, and the mixing operation is carried out at room temperature for a few minutes while the dropwise addition of water (or water-ethanol (1:1) mixed solution) continues.
Subsequently, respective crystals are dried at about 60° C. for 2 to 3 hours.

[3] = tested on: AMPA (alpha -amino-3-hydroxy-5-methyl-4-isoxazolepropionic acid) receptor; conditions: cited from earlier work
[4] = Minimum ignition energy (blown-up type dust explosion test); assay type: physicochemical; conditions: 24° C., humidity 49%, dust concentration 1250 g/m^3
Source text: (§1) Minimum Ignition Energy and Lower Explosion Concentration Limit
(§2) An appropriate amount of Hydrate crystal corresponding to a concentration was uniformly put on sample dish of blown-up type dust explosion test apparatus. 50 kPa of air was compressed in a 1.3 L pressure tank, and the air was introduced into a glass cylinder by opening of a solenoid operated valve to form dust clouds. A discharge electrode was supplied with energy after 0.1 seconds after the opening of the solenoid operated valve. The criterion of ignition is an arrival of flame at an ignition mark set 100 mm above the discharge electrode.
(3) Measurement Conditions for Minimum Ignition Energy
(§3) Temperature of the measurement room: 24° C.
(§4) Popping pressure of compressed air: 50 kPa
(§5) Ignition start time: 0.1 sec
Repetition of ignition test: 10 times
(§6) Blown-up type dust explosion test apparatus (Environmental Technology Co., Ltd. DES -10)

[5] = Influence of change in humidity on Hydrate crystal (powder X-ray diffraction); assay type: physicochemical; conditions: 4 to 90 to 5% RH
Method: (§7) Influence of Change in Temperature and Humidity on Hydrate Crystal
(§8) Rigaku X-ray DTA system: RINT-2000 manufactured by Rigaku Corporation
(§9) Crystals obtained in Example 5 (Hydrate crystal) were ground in a mortar and then sampled on a 13-mm diameter glass plate. Measurement was carried out under the conditions below.
Measurement humidity was changed as follows in turn and powder X-ray diffraction patterns were measured at the respective humidities in sequence: […]

[6] = Influence of change in temperature on Hydrate crystal (powder X-ray diffraction); assay type: physicochemical; conditions: 30 to 100 to 30° C.; returns to Hydrate when the temperature was lowered
Method: as §7, §8, §9
Scanning range (2θ): 5 to 40°
Measurement temperature was changed as follows in turn and powder X-ray diffraction patterns were measured at the respective temperatures in sequence: 30→40→50→60→70→80→100→70→60→50→40 and 30° C.

[7] = Lower explosion concentration limit (blown-up type dust explosion test); assay type: physicochemical; conditions: 24° C., humidity 49%, ignition discharge energy 10 J
Source text: as §1, §2
(2) Measurement Conditions for Lower Explosion Concentration Limit
as §3, §4, §5
Repetition of ignition test: 5 times
Ignition discharge energy: 10 J
as §6

SMILES	static potential of the powder (chargeability) [1]	change in crystal form during mixing operation (powder X-ray diffraction) [2]	also measured
N#Cc1ccccc1-c1cc(-c2ccccn2)cn(-c2ccccc2)c1=O [Reference Example 1, 3-(2-cyanophenyl)-5-(2-pyridyl)-1-phenyl-1,2-dihydropyridin-2-one, reference compound]	70-100 V	underwent a change in crystal form	–
N#Cc1ccccc1-c1cc(-c2ccccn2)cn(-c2ccccc2)c1=O [Example 7, 3-(2-cyanophenyl)-5-(2-pyridyl)-1-phenyl-1,2-dihydropyridin-2-one]	–	no change in crystal form	–
N#Cc1ccccc1-c1cc(-c2ccccn2)cn(-c2ccccc2)c1=O [Example 6, 3-(2-cyanophenyl)-5-(2-pyridyl)-1-phenyl-1,2-dihydropyridin-2-one]	–	no change in crystal form	–
N#Cc1ccccc1-c1cc(-c2ccccn2)cn(-c2ccccc2)c1=O [Compound (A), 3-(2-cyanophenyl)-5-(2-pyridyl)-1-phenyl-1,2-dihydropyridin-2-one]	–	–	antagonistic action against AMPA receptor [3]: significant antagonistic action
N#Cc1ccccc1-c1cc(-c2ccccn2)cn(-c2ccccc2)c1=O.O [Example 5, 3-(2-cyanophenyl)-5-(2-pyridyl)-1-phenyl-1,2-dihydropyridin-2-one hydrate]	0 V	no change in crystal form	Minimum Ignition Energy [4]: 50 to 100 mJ; humidity under which crystals stay Hydrate crystal [5]: ≥ 10 % RH; humidity under which Hydrate crystal changes to Anhydrous crystal form III ([5]; reversible): ≤ 10 % RH; temperature at which Hydrate crystal transforms to Anhydrous crystal form III [6]: ≥ 60 °C; Lower Explosion Concentration Limit [7]: 160-170 g/m^3
